# Data as given in ChEMBL document CHEMBL1135900, “Toward selective ERbeta agonists for central nervous system disorders: synthesis and characterization of aryl benzthiophenes” (J Med Chem, 2002).
# pEC50: −log10 of the molar value.
# Assays:
# Estrogen receptor beta [1] = target: T1, Estrogen receptor beta (Homo sapiens, UniProt Q92731)
# Description: Inhibition of [3H]17-beta-estradiol binding to human recombinant Estrogen receptor beta.
# Estrogen receptor [2] = target: T2, Estrogen receptor (Homo sapiens, UniProt P03372)
# T2 sequence (P03372 whole entry): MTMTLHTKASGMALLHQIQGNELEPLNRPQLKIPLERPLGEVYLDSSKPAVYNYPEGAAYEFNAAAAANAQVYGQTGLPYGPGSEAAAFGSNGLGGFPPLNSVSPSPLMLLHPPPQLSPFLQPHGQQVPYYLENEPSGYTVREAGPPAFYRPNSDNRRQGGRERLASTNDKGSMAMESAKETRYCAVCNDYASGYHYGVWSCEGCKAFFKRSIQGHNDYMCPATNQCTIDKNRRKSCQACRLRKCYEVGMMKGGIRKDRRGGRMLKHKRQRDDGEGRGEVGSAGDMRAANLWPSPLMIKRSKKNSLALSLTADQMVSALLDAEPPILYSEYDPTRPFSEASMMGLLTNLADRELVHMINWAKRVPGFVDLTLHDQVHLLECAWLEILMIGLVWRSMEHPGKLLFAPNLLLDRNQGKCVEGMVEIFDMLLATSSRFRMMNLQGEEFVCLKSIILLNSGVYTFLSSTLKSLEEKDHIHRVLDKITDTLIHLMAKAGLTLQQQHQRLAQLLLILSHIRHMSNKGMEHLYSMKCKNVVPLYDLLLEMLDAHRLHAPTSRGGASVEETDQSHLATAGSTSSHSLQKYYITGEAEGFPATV
# Description: Inhibition of [3H]17-beta-estradiol binding to human recombinant Estrogen receptor alpha.
# Estrogen receptor beta [3] = target: T1, Estrogen receptor beta; remark: listed apart in the source
# Description: Activation of estrogen response element in HeLa cells stably transfected with human Estrogen receptor beta.
# Estrogen receptor [4] = target: T2, Estrogen receptor; remark: listed apart in the source
# Description: Activation of estrogen response element in HeLa cells stably transfected with human Estrogen receptor alpha.
# Estrogen receptor beta [5] = target: T1, Estrogen receptor beta; assay: Agonist activity in transcriptional activation assay in SH-SY5Y neuroblastoma cells expressing Estrogen receptor beta; format: functional, cell-based
# T1 sequence (Q92731 whole entry): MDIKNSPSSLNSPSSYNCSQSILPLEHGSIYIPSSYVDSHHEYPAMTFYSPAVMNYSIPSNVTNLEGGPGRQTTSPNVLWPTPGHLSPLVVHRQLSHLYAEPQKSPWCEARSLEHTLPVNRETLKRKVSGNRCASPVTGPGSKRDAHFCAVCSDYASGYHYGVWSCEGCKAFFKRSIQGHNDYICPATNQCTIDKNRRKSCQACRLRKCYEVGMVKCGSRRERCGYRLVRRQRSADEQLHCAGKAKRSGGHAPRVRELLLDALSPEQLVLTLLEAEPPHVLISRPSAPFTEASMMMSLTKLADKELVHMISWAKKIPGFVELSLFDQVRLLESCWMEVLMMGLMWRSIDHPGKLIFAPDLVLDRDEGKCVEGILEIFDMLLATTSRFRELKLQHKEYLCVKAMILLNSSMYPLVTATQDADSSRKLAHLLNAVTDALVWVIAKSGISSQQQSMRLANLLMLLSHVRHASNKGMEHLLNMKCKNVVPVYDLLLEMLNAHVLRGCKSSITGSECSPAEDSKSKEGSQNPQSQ
pEC50 (Estrogen receptor beta [1]),pEC50 (Estrogen receptor [2]),pEC50 (Estrogen receptor beta [3]),pEC50 (Estrogen receptor [4]),pEC50 (Estrogen receptor beta [5]),Compound
5.74,5.44,6.52,6.83,,Cc1cc(-c2cc3ccc(O)cc3s2)ccc1O
6.94,,7.77,,8.00,Oc1ccc(-c2cc3ccc(O)cc3s2)cc1 [RALOXIFENE CORE]
6.60,5.30,6.28,6.44,,Oc1ccc2cc(-c3ccc(O)c(O)c3)sc2c1
< 5.00,< 5.00,6.76,6.75,6.92,Cc1ccc(-c2cc3ccc(O)cc3s2)cc1
5.40,< 5.00,6.73,6.79,6.59,CCCc1cc(-c2cc3ccc(O)cc3s2)ccc1O
5.33,5.13,6.59,6.72,,CCc1cc(-c2cc3ccc(O)cc3s2)ccc1O
5.13,< 5.00,< 6.00,6.00,,Oc1cc(O)c2cc(-c3ccc(O)c(F)c3)sc2c1
6.13,5.66,6.61,6.57,,Oc1cccc(-c2cc3ccc(O)cc3s2)c1
6.94,5.99,7.49,6.86,7.89,Oc1ccc2cc(-c3ccc(O)c(F)c3)sc2c1
5.37,5.43,6.78,6.68,7.16,Oc1ccc2cc(-c3ccccc3)sc2c1

Compound,pEC50 (Estrogen receptor beta [1]),pEC50 (Estrogen receptor [2]),pEC50 (Estrogen receptor beta [3]),pEC50 (Estrogen receptor [4]),pEC50 (Estrogen receptor beta [5])
CC(=O)c1cc(-c2cc3ccc(O)cc3s2)ccc1O,< 5.00,< 5.00,< 6.00,< 6.00,
Cc1cc(-c2cc3c(O)cc(O)cc3s2)ccc1O,< 5.00,< 5.00,< 6.00,< 6.00,
Cc1cc(O)ccc1-c1cc2ccc(O)cc2s1,6.89,6.47,7.82,7.32,7.80
